Assay results reported in the supplement of paper PMC10307832.

Key:
Test in all cases: relative viability (nuclei count vs DMSO), 5 days (fraction); higher = more cells survive
PC-14 = test system: PC-14
Outline: (§1)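 For relative viability, nuclei counts in treated wells were divided by those in vehicle wells. Lung cancer cell lines had been pin-tool dosed in 1536-well plates the day after seeding and cultured for 5 days, then fixed and stained in one step (final 0.05% Triton X-100, 1% formaldehyde, 1 ug/ml Hoechst) and imaged at 4×. Doses were one drug alone or a fixed anchor-drug dose plus five library-drug doses (not always all listed) in √10 steps, and values are duplicate-plate medians.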

NCI-H23 = test system: NCI-H23
Outline: as §1

NCI-H2347 = test system: NCI-H2347
Outline: as §1

NCI-H2087 = test system: NCI-H2087
Outline: as §1

NCI-H1666 = test system: NCI-H1666
Outline: as §1

201T = test system: 201T
Outline: as §1

LCLC-97TM1 = test system: LCLC-97TM1
Outline: as §1

NCI-H650 = test system: NCI-H650
Outline: as §1

LC-2-ad = test system: LC-2-ad
Outline: as §1

NCI-H2126 = test system: NCI-H2126
Outline: as §1

NCI-H520 = test system: NCI-H520
Outline: as §1

ChaGo-K-1 = test system: ChaGo-K-1
Outline: as §1

NCI-H647 = test system: NCI-H647
Outline: as §1

EPLC-272H = test system: EPLC-272H
Outline: as §1

HCC-78 = test system: HCC-78
Outline: as §1

NCI-H661 = test system: NCI-H661
Outline: as §1

HCC-827 = test system: HCC-827
Outline: as §1

RERF-LC-KJ = test system: RERF-LC-KJ
Outline: as §1

NCI-H1915 = test system: NCI-H1915
Outline: as §1

H3255 = test system: H3255
Outline: as §1

NCI-H2405 = test system: NCI-H2405
Outline: as §1

COR-L 105 = test system: COR-L 105
Outline: as §1

CCN(CC)CCCCNc1ncc2cc(-c3cc(OC)cc(OC)c3)c(NC(=O)NC(C)(C)C)nc2n1 + Cc1nc(Nc2ncc(C(=O)Nc3c(C)cccc3Cl)s2)cc(N2CCN(CCO)CC2)n1 [Dasatinib] (partner 0.075 µM)
relative viability (PC-14; first compound 0.01 µM): 0.263
relative viability (PC-14; first compound 0.03162 µM): 0.268
relative viability (PC-14; first compound 0.1 µM): 0.276
relative viability (PC-14; first compound 0.3162 µM): 0.264
relative viability (PC-14; first compound 1 µM): 0.162
relative viability (NCI-H23; first compound 0.01 µM): 0.795
relative viability (NCI-H23; first compound 0.03162 µM): 1
relative viability (NCI-H23; first compound 0.1 µM): 0.904
relative viability (NCI-H23; first compound 0.3162 µM): 0.925
relative viability (NCI-H23; first compound 1 µM): 0.878
relative viability (NCI-H2347; first compound 0.01 µM): 0.149
relative viability (NCI-H2347; first compound 0.03162 µM): 0.315
relative viability (NCI-H2347; first compound 0.1 µM): 0.39
relative viability (NCI-H2347; first compound 0.3162 µM): 0.288
relative viability (NCI-H2347; first compound 1 µM): 0.31
relative viability (NCI-H2087; first compound 0.01 µM): 0.993
relative viability (NCI-H2087; first compound 0.03162 µM): 0.797
relative viability (NCI-H2087; first compound 0.1 µM): 0.964
relative viability (NCI-H2087; first compound 0.3162 µM): 0.961
relative viability (NCI-H2087; first compound 1 µM): 0.888
relative viability (NCI-H1666; first compound 0.01 µM): 0.824
relative viability (NCI-H1666; first compound 0.03162 µM): 0.757
relative viability (NCI-H1666; first compound 0.1 µM): 0.942
relative viability (NCI-H1666; first compound 0.3162 µM): 0.884
relative viability (NCI-H1666; first compound 1 µM): 0.639
relative viability (201T; first compound 0.01 µM): 0.553
relative viability (201T; first compound 0.03162 µM): 0.568
relative viability (201T; first compound 0.1 µM): 0.677
relative viability (201T; first compound 0.3162 µM): 0.568
relative viability (201T; first compound 1 µM): 0.635
relative viability (LCLC-97TM1; first compound 0.01 µM): 0.806
relative viability (LCLC-97TM1; first compound 0.03162 µM): 0.877
relative viability (LCLC-97TM1; first compound 0.1 µM): 0.93
relative viability (LCLC-97TM1; first compound 0.3162 µM): 0.934
relative viability (LCLC-97TM1; first compound 1 µM): 0.838
relative viability (NCI-H650; first compound 0.01 µM): 0.368
relative viability (NCI-H650; first compound 0.03162 µM): 0.454
relative viability (NCI-H650; first compound 0.1 µM): 0.468
relative viability (NCI-H650; first compound 0.3162 µM): 0.48
relative viability (NCI-H650; first compound 1 µM): 0.427
relative viability (LC-2-ad; first compound 0.01 µM): 0.575
relative viability (LC-2-ad; first compound 0.03162 µM): 0.679
relative viability (LC-2-ad; first compound 0.1 µM): 0.73
relative viability (LC-2-ad; first compound 0.3162 µM): 0.664
relative viability (LC-2-ad; first compound 1 µM): 0.344
relative viability (NCI-H2126; first compound 0.01 µM): 0.586
relative viability (NCI-H2126; first compound 0.03162 µM): 0.603
relative viability (NCI-H2126; first compound 0.1 µM): 0.648
relative viability (NCI-H2126; first compound 0.3162 µM): 0.77
relative viability (NCI-H2126; first compound 1 µM): 0.53
relative viability (NCI-H520; first compound 0.01 µM): 0.182
relative viability (NCI-H520; first compound 0.03162 µM): 0.2
relative viability (NCI-H520; first compound 0.1 µM): 0.216
relative viability (NCI-H520; first compound 0.3162 µM): 0.159
relative viability (NCI-H520; first compound 1 µM): 0.162
relative viability (ChaGo-K-1; first compound 0.01 µM): 0.584
relative viability (ChaGo-K-1; first compound 0.03162 µM): 0.602
relative viability (ChaGo-K-1; first compound 0.1 µM): 0.655
relative viability (ChaGo-K-1; first compound 0.3162 µM): 0.643
relative viability (ChaGo-K-1; first compound 1 µM): 0.514
relative viability (NCI-H647; first compound 0.01 µM): 0.189
relative viability (NCI-H647; first compound 0.03162 µM): 0.174
relative viability (NCI-H647; first compound 0.1 µM): 0.209
relative viability (NCI-H647; first compound 0.3162 µM): 0.218
relative viability (NCI-H647; first compound 1 µM): 0.0989
relative viability (EPLC-272H; first compound 0.01 µM): 0.379
relative viability (EPLC-272H; first compound 0.03162 µM): 1.08
relative viability (EPLC-272H; first compound 0.1 µM): 0.322
relative viability (EPLC-272H; first compound 0.3162 µM): 0.294
relative viability (EPLC-272H; first compound 1 µM): 0.241
relative viability (HCC-78; first compound 0.01 µM): 0.46
relative viability (HCC-78; first compound 0.03162 µM): 0.361
relative viability (HCC-78; first compound 0.1 µM): 0.493
relative viability (HCC-78; first compound 0.3162 µM): 0.421
relative viability (HCC-78; first compound 1 µM): 0.364
relative viability (NCI-H661; first compound 0.01 µM): 0.906
relative viability (NCI-H661; first compound 0.03162 µM): 0.841
relative viability (NCI-H661; first compound 0.1 µM): 1.1
relative viability (NCI-H661; first compound 0.3162 µM): 1.03
relative viability (NCI-H661; first compound 1 µM): 0.644
relative viability (HCC-827; first compound 0.01 µM): 0.338
relative viability (HCC-827; first compound 0.03162 µM): 0.245
relative viability (HCC-827; first compound 0.1 µM): 0.352
relative viability (HCC-827; first compound 0.3162 µM): 0.335
relative viability (HCC-827; first compound 1 µM): 0.299
relative viability (RERF-LC-KJ; first compound 0.01 µM): 0.783
relative viability (RERF-LC-KJ; first compound 0.03162 µM): 1
relative viability (RERF-LC-KJ; first compound 0.1 µM): 0.843
relative viability (RERF-LC-KJ; first compound 0.3162 µM): 0.947
relative viability (RERF-LC-KJ; first compound 1 µM): 0.738
relative viability (NCI-H1915; first compound 0.01 µM): 0.303
relative viability (NCI-H1915; first compound 0.03162 µM): 0.306
relative viability (NCI-H1915; first compound 0.1 µM): 0.361
relative viability (NCI-H1915; first compound 0.3162 µM): 0.286
relative viability (NCI-H1915; first compound 1 µM): 0.297
relative viability (H3255; first compound 0.01 µM): 0.342
relative viability (H3255; first compound 0.03162 µM): 0.305
relative viability (H3255; first compound 0.1 µM): 0.478
relative viability (H3255; first compound 0.3162 µM): 0.594
relative viability (H3255; first compound 1 µM): 0.339
relative viability (NCI-H2405; first compound 0.01 µM): 0.193
relative viability (NCI-H2405; first compound 0.03162 µM): 0.202
relative viability (NCI-H2405; first compound 0.1 µM): 0.466
relative viability (NCI-H2405; first compound 0.3162 µM): 0.205
relative viability (NCI-H2405; first compound 1 µM): 0.186
relative viability (COR-L 105; first compound 0.01 µM): 0.297
relative viability (COR-L 105; first compound 0.03162 µM): 0.282
relative viability (COR-L 105; first compound 0.1 µM): 0.354
relative viability (COR-L 105; first compound 0.3162 µM): 0.381
relative viability (COR-L 105; first compound 1 µM): 0.279
